Structures can show the parent of a compound that is named as a salt.
Row | Compound | melting point [°C]
1 | O=C(O)COc1cccc(/C=C\COC(=O)N(c2ccccc2)c2ccccc2)c1 (as salt: salt) [Example 9, Cis-[3-(3-Diphenylcarbamoyloxypropenyl)phenoxy]acetic acid] | 132.5 to 135
2 | O=C(O)CCc1cccc(/C=C\COC(=O)N(c2ccccc2)c2ccccc2)c1 (as salt: salt) [Example 13, cis-3-[3-(3-Diphenylcarbamoyloxypropenyl)phenyl]propionic acid] | 131.8 to 132.4
3 | O=C(O)COc1cccc(COC(=O)N(c2ccccc2)c2ccccc2)c1Cl [Example 1, {2-Chloro-3-[(diphenylcarbamoyloxy)methyl]phenoxy}acetic acid] | 182.2 to 182.9
4 | Cc1c(COC(=O)N(c2ccccc2)c2ccccc2)cccc1OCC(=O)O [Example 2, {3-[(Diphenylcarbamoyloxy)methyl]-2-methylphenoxy}acetic acid] | 180.1 to 180.7
5 | O=C(O)COc1cccc(COC(=O)N(c2ccccc2)c2ccccc2)c1 [Example 4, {3-[(Diphenylcarbamoyloxy)methyl]phenoxy}acetic acid] | 142.2 to 143.8
6 | O=C(O)COc1cccc(/C=C/COC(=O)N(c2ccccc2)c2ccccc2)c1 [Example 6, Trans-[3-(3-Diphenylcarbamoyloxypropenyl)phenoxy}acetic acid] | 112.4 to 113.7
7 | Cc1c(/C=C\COC(=O)N(c2ccccc2)c2ccccc2)cccc1OCC(=O)O [Example 8, Cis-[3-(3-Diphenylcarbamoyloxypropenyl)-2-methylphenoxy]acetic acid] | 133.4 to 135.5
8 | O=C(O)Cc1cccc(CCOC(=O)N(c2ccccc2)c2ccccc2)c1 [Example 12, [3-(2-diphenylcarbamoyloxyethyl)phenyl]acetic acid] | 123 to 123.3
9 | Cc1c(CCCOC(=O)N(c2ccccc2)c2ccccc2)cccc1CC(=O)O [Example 12, [3-(3-diphenylcarbamoyloxypropyl)-2-methylphenyl]acetic acid] | 128.7 to 129.2
10 | O=C(O)Cc1cccc(CCCCOC(=O)N(c2ccccc2)c2ccccc2)c1 [Example 12, [3-(4-diphenylcarbamoyloxybutyl)phenyl]acetic acid] | 117.8 to 119.6
11 | O=C(O)Cc1cccc(CCCCCOC(=O)N(c2ccccc2)c2ccccc2)c1 [Example 12, [3-(5-diphenylcarbamoyloxypentyl)phenyl]acetic acid] | 128.1 to 128.7
12 | O=C(O)Cc1cccc(CCCCCCOC(=O)N(c2ccccc2)c2ccccc2)c1 [Example 12, [3-(6-diphenylcarbamoyloxyhexyl)phenyl]acetic acid] | 99.8 to 101.7

Continued, values first:

Row | melting point [°C] | Compound
13 | 112.5 to 112.8 | O=C(O)COc1cccc(/C=C\CCOC(=O)N(c2ccccc2)c2ccccc2)c1 (as salt: salt) [Example 10A, cis-[3-(4-diphenylcarbamoyloxybut-1-enyl)phenoxy]acetic acid tert-butylamine salt]
14 | 107 to 108.5 | O=C(O)COc1cccc(/C=C\COC(=O)N(Cc2ccccc2)c2ccccc2)c1 (as salt: salt) [Example 10B, cis-{3-[3-(benzylphenylcarbamoyloxypropenyl)phenoxy]acetic acid tert-butylamine salt]
15 | 102 to 106 | CC(C)(C)N.O=C(O)CCCOc1cccc(/C=C\COC(=O)N(c2ccccc2)c2ccccc2)c1 [Example 10A, cis-4-[3-(3-diphenylcarbamoyloxypropenyl)phenoxy]butyric acid tert-butylamine salt]
16 | 56.3 to 56.7 | O=C(O)CCCCOc1cccc(/C=C\COC(=O)N(c2ccccc2)c2ccccc2)c1 [Example 10A, cis-5-[3-(3-diphenylcarbamoyloxypropenyl)phenoxy]pentanoic acid]
17 | 87 to 88.5 | CC(C)(C)N.O=C(O)COc1cccc(/C=C\CCCCOC(=O)N(c2ccccc2)c2ccccc2)c1 [Example 10A, cis-[3-(6-diphenylcarbamoyloxyhex-1-enyl)phenoxy]acetic acid tert-butylamine salt]
18 | 151.2 to 153.1 | CC(C)(C)N.O=C(O)Cc1cccc(/C=C\CCOC(=O)N(c2ccccc2)c2ccccc2)c1 [Example 14A, cis-[3-(4-diphenylcarbamoyloxybut-1-enyl)phenyl]acetic acid tert-butylamine salt]
19 | 180.5 to 184 | CC(C)(C)N.O=C(O)c1cccc(/C=C\COC(=O)N(c2ccccc2)c2ccccc2)c1 [Example 14B, cis-3-(3-diphenylcarbamoyloxypropenyl)benzoic acid tert-butylamine salt]
20 | 172.8 to 176.8 | CC(C)(C)N.O=C(O)c1cccc(/C=C\CCOC(=O)N(c2ccccc2)c2ccccc2)c1 [Example 14B, cis-3-(4-diphenylcarbamoyloxybut-1-enyl)benzoic acid tert-butylamine salt]
21 | 112.3 to 113.1 | CC(C)(C)N.CC(CCc1cccc(CC(=O)O)c1)OC(=O)N(c1ccccc1)c1ccccc1 (stereo not drawn) [Example 14C, [3-(3-diphenylcarbamoyloxybutyl)phenyl]acetic acid tert-butylamine salt]
